In PubChem BioAssay AID1963435 (Molecular Pharmacology Branch, DTP, NCI, 2024):
Several values for one entry are separate records, joined by “and”; a condition that tells them apart may be missing. Identical values can stand only once.

Tested on: PANC-1 complex spheroid growth, percent test/control
Assay: Anticancer human tumor PANC-1 cell line growth inhibition [Asc];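 further: spheroids exposed to agents for 7 days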;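 on viability, T/C: percent viability relative to DMSO vehicle wells taken as 100%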
Details: for viability, T/C: stronger effect = lower value
Experimental: Multicellular complex tumor spheroid response to apoptosis pathway targeting inhibitors Alrizomadlin, Pelcitoclax, and Dasminapant in combination with a variety of drugs and investigational agents in selected tumor cell lines
The MDM2 inhibitor alrizomadlin, the Bcl-2/Bcl-xL inhibitor pelcitoclax, and the IAPs inhibitor dasminapant were evaluated both individually and in combination with standard of care and investigational anticancer small molecules within a complex spheroid model of solid tumors. . Complex spheroids include a stromal component modeled by human endothelial cells (HUVEC) and fibroblasts modeled by human mesenchymal stem cells (MSCs). The concentration ranges selected for each drug and investigational agent were based upon clinically achievable concentrations if the clinical Cmax of the agent was known.
Compounds. The drugs and investigational agents: alrizomadlin (APG-115; NSC831270), pelcitoclax (APG-1252; NSC835773), dasminapant (APG-1387;NSC834197), TAK-243 (NSC785004), copanlisib (NSC809693), olaparib (NSC753686), talazoparib (NSC767125), cobimetinib (NSC 768068), eltanexor (KPT-8602, NSC 794443), abemaciclib (NSC 768073), sotorasib (NSC818433), adagrasib (NSC 831453), MRTX-1133 (NSC 836407), Iadademestat (ORY1001, NSC 806812), and RMC-4630 (NSC839698), were obtained from the NCI Developmental Therapeutics Program Chemical Repository. The FDA-approved anticancer drug set is available from the Developmental Therapeutics Program at https://dtp.cancer.gov/organization/dscb/obtaining/available plates.htm. […] The stock solutions were prepared in dimethyl sulfoxide (DMSO, Sigma-Aldrich, St. Louis, MO, cat. D2650) at 800-fold the tested concentration and stored at -70 degrees C prior to their use. All drugs and investigational agents were tested over a range starting from a high concentration at or near the clinical Cmax and decreasing in half-log increments. If the clinical Cmax for an agent had not been determined, the highest concentration tested was 10 microM.
The patient-derived cancer (PDC) cell lines include five colon adenocarcinomas: 186277-243-T-J2-PDC, 616215-338-R-J1-PDC, 439559-082-T-J2-PDC, 463943-066-T-J2-PDC, and 519858-162-T-J1-PDC; three pancreatic carcinomas: 323965-272-R-J2-PDC, 521955-158-R6-J3-PDC, and 521955-158-R2-J5-PDC; two uterine sarcomas: 327498-152-R-J2-PDC and 993429-296-R-J1-PDC; two rhabdomyosarcomas: 755483-174-R-J1-PDC and 772245-204-R-J1-PDC; two soft tissue sarcomas: 126254-015-R-J1-PDC and 494315-158-R-J1-PDC; two malignant fibrous histiocytomas: 317291-083-R-J1-PDC and 596521-263-R-J1-PDC; two breast carcinomas: 171881-019-R-J1-PDC and 885512-296-R-J2-PDC; and one ovarian carcinoma: 6556581-035-R-J-PDC were obtained from the NCI PDMR, (https://pdmr.cancer.gov). The established cell lines HSSY-2 synovial sarcoma (RRID:CVCL 8719), SYO-1 synovial sarcoma (RRID:CVCL_7146), MPNST malignant peripheral neural sheath tumor were obtained from the Sloan Kettering Institute. The following established cell lines were purchased from the American Type Culture Collection (ATCC, Manassas, VA), Sor the received from the NCI repository:, PANC-1 pancreatic carcinoma (CRL-1469, RRID:CVCL_0480), OVCAR-5 ovarian carcinoma (RRID:CVCL_1628), OVCAR-8 ovarian carcinoma (RRID:CVCL_1629), , MCF-7 breast carcinoma (CRL-12584, RRID:CVCL_0031), MDA-MB-231 breast carcinoma (CRL-12532, RRID:CVCL_0062), NCI-H1876 small cell lung carcinoma (CRL-5902, RRID:CVCL_1503), NCI-H510A small cell lung carcinoma (HTB-184, RRID:CVCL_1565), NCI-H1417 (CRL-5869, RRID:CVCL_1469), and NCI-H196 small cell lung carcinoma (CRL-5823, RRID:CVCL_1509). Dr. Peter Houghton (Greehey Children's Cancer Research Institute, University of Texas Health Science Center, San Antonio, TX) provided Rh-18 rhabdomyosarcoma (RRID:CVCL_1659). Pooled donor human umbilical vein endothelial cells (HUVEC, Lonza, cat. CC-2519) and human mesenchymal stem cells (hMSC, Lonza, cat. PT-2501) were purchased from Lonza (Walkersville, MD).
Cell Culture. […]

Compound: O=C(c1cc(Cc2n[nH]c(=O)c3ccccc23)ccc1F)N1CCN(C(=O)C2CC2)CC1 + Cc1c(S(C)(=O)=O)c(-c2cc(F)cc(N3CCN(c4ccc(NS(=O)(=O)c5ccc(NC(CCN6CCC(C(=O)OCCCP(=O)(O)O)CC6)CSc6ccccc6)c(S(=O)(=O)C(F)(F)F)c5)cc4)CC3)c2)c(-c2ccc(Cl)cc2)n1C(C)C
- IC50 (curve of first compound, second compound 0.0316 µM): > 10 µM
- IC50 (curve of first compound, second compound 0.1 µM): > 10 µM
- IC50 (curve of first compound, second compound 0.316 µM): > 10 µM
- IC50 (curve of first compound, second compound 1 µM): > 10 µM
- IC50 (curve of first compound, second compound 3.16 µM): > 10 µM
- IC50 (curve of first compound, second compound 10 µM): > 10 µM
- viability, T/C (second compound 0.0316 µM, first compound 0.0316 µM): 106%
- viability, T/C (second compound 0.0316 µM, first compound 0.1 µM): 104%
- viability, T/C (second compound 0.0316 µM, first compound 0.316 µM): 107%
- viability, T/C (second compound 0.0316 µM, first compound 1 µM): 107%
- viability, T/C (second compound 0.0316 µM, first compound 3.16 µM): 99%
- viability, T/C (second compound 0.0316 µM, first compound 10 µM): 93.7%
- viability, T/C (second compound 0.1 µM, first compound 0.0316 µM): 89%
- viability, T/C (second compound 0.1 µM, first compound 0.1 µM): 107%
- viability, T/C (second compound 0.1 µM, first compound 0.316 µM): 107%
- viability, T/C (second compound 0.1 µM, first compound 1 µM): 103%
- viability, T/C (second compound 0.1 µM, first compound 3.16 µM): 117%
- viability, T/C (second compound 0.1 µM, first compound 10 µM): 95.5%
- viability, T/C (second compound 0.316 µM, first compound 0.0316 µM): 102%
- viability, T/C (second compound 0.316 µM, first compound 0.1 µM): 103%
- viability, T/C (second compound 0.316 µM, first compound 0.316 µM): 112%
- viability, T/C (second compound 0.316 µM, first compound 1 µM): 112%
- viability, T/C (second compound 0.316 µM, first compound 3.16 µM): 103%
- viability, T/C (second compound 0.316 µM, first compound 10 µM): 86.1%
- viability, T/C (second compound 1 µM, first compound 0.0316 µM): 112%
- viability, T/C (second compound 1 µM, first compound 0.1 µM): 101%
- viability, T/C (second compound 1 µM, first compound 0.316 µM): 105%
- viability, T/C (second compound 1 µM, first compound 1 µM): 111%
- viability, T/C (second compound 1 µM, first compound 3.16 µM): 111%
- viability, T/C (second compound 1 µM, first compound 10 µM): 86.9%
- viability, T/C (second compound 3.16 µM, first compound 0.0316 µM): 103%
- viability, T/C (second compound 3.16 µM, first compound 0.1 µM): 106%
- viability, T/C (second compound 3.16 µM, first compound 0.316 µM): 106%
- viability, T/C (second compound 3.16 µM, first compound 1 µM): 115%
- viability, T/C (second compound 3.16 µM, first compound 3.16 µM): 119%
- viability, T/C (second compound 3.16 µM, first compound 10 µM): 87.2%
- viability, T/C (second compound 10 µM, first compound 0.0316 µM): 166%
- viability, T/C (second compound 10 µM, first compound 0.1 µM): 178%
- viability, T/C (second compound 10 µM, first compound 0.316 µM): 187%
- viability, T/C (second compound 10 µM, first compound 1 µM): 202%
- viability, T/C (second compound 10 µM, first compound 3.16 µM): 171%
- viability, T/C (second compound 10 µM, first compound 10 µM): 88.9%

Compound: C#Cc1c(F)ccc2cc(O)cc(-c3ncc4c(N5CC6CCC(C5)N6)nc(OCC56CCCN5CC(F)C6)nc4c3F)c12 (centres undefined)
- viability, T/C (compound 0.0316 µM): 105% and 87.8% and 92.5%
- viability, T/C (compound 0.1 µM): 80% and 75.7% and 88.9%
- viability, T/C (compound 0.316 µM): 93.9% and 85.8% and 83.5%
- viability, T/C (compound 1 µM): 79.9% and 80.1% and 84%
- viability, T/C (compound 3.16 µM): 86.8% and 83.7% and 86.3%
- viability, T/C (compound 10 µM): 85.4% and 84.5% and 92.1%
- IC50 (curve of compound): > 10 µM
